In US5574059A, “Treating disorders mediated by vascular smooth muscle cell proliferation” (priority 1995, dated 1996):

What was measured:
[1] = Example III: patient with coronary artery disease, angioplasty; type: in vivo, human
Protocol: A person presents with the onset of chest pain on exertion. […] Ten days before angioplasty, the patient is begun on 75 or 100 mg/day of idazoxan. […] Treatment with 50 mg/day idazoxan is continued for 3 months.

[2] = Example I: patient with intermittent claudication, iliac artery plaques; type: in vivo, human; conditions: over 30 days oral; idazoxan 50 and 75 mg/day, UK 14,304 125, naphazoline 125, cirazoline 75, agmatine 900 mg/day
From the text: A person presents with progressive symptoms of intermittent claudication in both legs.

[3] = tested on: rat aortic smooth muscle cells; assay: serum-stimulated proliferation, 3H-thymidine incorporation into DNA; type: cell-based; conditions: 10% fetal calf serum stimulated
Protocol: Inhibition of serum-stimulated proliferation of rat aortic smooth muscle cells is determined as follows: The antiproliferative effect of potential drug is determined by measuring the incorporation of ^3 H-thymidine into cellular DNA. Exposure of quiescent vascular smooth muscle cell to serum, which contains many growth factors, results in a large increase in cellular proliferation as measured by ^3 H-thymidine incorported into DNA. The inhibitory effect of potential drug on serum-stimulated proliferation is tested by adding a drug before the addition of serum and determining if the serum-stimulated proliferation is reduced. […] In that event, antagonizing of the antiproliferative effect of idazoxan is determined by adding antagonist before the addition of idazoxan to serum-stimulated vascular smooth muscle cells.
In this experiment, the proliferation of vascular smooth muscle cells was determined by measuring DNA replication. The incorporation of ^3 H-thymidine into DNA was used to measure the replication of DNA as described in Erlinge, D., et al, Am. J. Physiol. 265, H1089-H1097 (1993) which is incorporated herein by reference.
Rat aortic smooth muscle cells prepared as described in In Vitro Example 1 were plated into 24-well plates at a density of about 30,000 cells/well in 10% fetal calf serum (FCS). After 48 hours, the cells were starved in 0.5% FCS for another 48 hours to decrease proliferation and induce quiescence. The medium was replaced by serum-free medium 24 hours prior to addition of drug (drugs are described below) and 10% fetal calf serum or only 10% fetal calf serum in the case of the control. The cells were then incubated for 24 hours and ^3 H-thymidine (1 μCi/well) was added at hour 20. At the end of the 24 hour period, the medium was aspirated and the cells were washed three times with phosphate-buffered saline and twice with ice-cold trichloroacetic acid. Fixed cells were then solubilized in 0.2M NaOH and sonicated. A 100 μl aliquot was used for scintillation counting.

[4] = tested on: human coronary artery smooth muscle cells; assay: 3H-thymidine incorporation in normal human coronary artery smooth muscle cells; type: cell-based
Protocol: In this experiment the antiproliferative action of idazoxan was tested in normal human coronary artery smooth muscle cells (Clonetics Corp.). Proliferation of smooth muscle cells was measured as described above by the incorporation of ^3 H-thymidine into cellular DNA. Following the incubation of semi-confluent smooth muscle cells in serum-free medium for 24 hr, growth is stimulated by either 5% fetal calf serum (FCS) or platelet derived growth factor (PDGF) (10 ng/well) in the presence and absence of various concentrations of idazoxan. […] In Table 4, "DPM" stands for disintegrations per minute which is a measure of the radioactivity incorporated into the cellular DNA by 3H-thymidine.

[5] = Example V: patient with Type I diabetes mellitus, overgrowth of retinal vessels; type: in vivo, human; conditions: idazoxan 75 mg/day; UK 14,304 60, naphazoline 125, cirazoline 60, agmatine 900 mg/day
From the text: A person with Type I diabetes mellitus and maintained on insulin presents with progressive symptoms of loss of visual acuity bilaterally with evidence on opthalmascopic examination of overgrowth of retinal vessels and hemorrhages.

In the case of `c1ccc2c(c1)OCC(C1=NCCN1)O2` (stereo not shown) [Idazoxan, 2-[2-(1,4-benzodioxanyl)]-2-imidazoline], the “symptoms / restenosis after angioplasty” value ([1]; idazoxan 50 mg/day continued for 3 months, substitutes, dose not stated) is reported as “remains symptomless without evidence of restenosis”, the chest pain ([1]; idazoxan 75 or 100 mg/day from ten days before angioplasty) is reported as “no further chest pain” and the “symptoms of intermittent claudication” value [2] is reported as “stabilization of symptoms”. The “inhibition of vascular smooth muscle cell proliferation, in words” value [3] was “potently inhibited”, the IC50 ([3]; Rattus norvegicus, 24 h, read-out: 3H-thymidine incorporated (IC50)) was 4.5 ± 1.4 µM and the 3H-thymidine incorporated ([4]; FCS (5%) + idazoxan 1 μM) was 5540 ± 430 DPM/well. It also gave a 3H-thymidine incorporated ([4]; FCS (5%) + idazoxan 10 μM) of 2370 ± 230 DPM/well, a 3H-thymidine incorporated ([4]; FCS (5%) + idazoxan 100 μM) of 430 ± 98 DPM/well and a 3H-thymidine incorporated ([4]; PDGF (10 ng/well) + idazoxan 1 μM) of 3220 ± 180 DPM/well. The 3H-thymidine incorporated ([4]; PDGF (10 ng/well) + idazoxan 10 μM) was 1890 ± 210 DPM/well, the 3H-thymidine incorporated ([4]; PDGF (10 ng/well) + idazoxan 100 μM) was 340 ± 60 DPM/well and the “incorporation of 3H-thymidine, in words” value ([4]; stimulated by FCS or PDGF) was “inhibited the incorporation of ^3 H-thymidine”. For the same compound, the “progression and visual symptoms” value [5] was “arrest of the progression and some regression of the visual symptoms”.
